Data published in patent publication EP0941988A2, “Benzamidoxime derivatives, intermediates and process for their preparation and their use as fungicides” (BASF AKTIENGESELLSCHAFT, priority 1998, dated 1999).

Legend:
[1] = tested on: Weizenmehltau (Erysiphe graminis f.sp.tritici); assay: Efficacy against wheat powdery mildew, protective spray on wheat seedlings cv. "Frühgold" (Beispiel 2); format: in vivo; conditions: inoculated 24 h after spray coating dried, visual rating after 7 days, concentration not given, untreated plants 80 % infested
Description: Beispiel 2: Wirksamkeit gegen Weizenmehltau
Blätter von in Töpfen gewachsenen Weizenkeimlingen der Sorte "Frühgold" wurden mit wäßriger Wirkstoffaufbereitung, die aus einer Stammlösung bestehend aus 10 % Wirkstoff, 63% Cyclohexanon und 27 % Emulgiermittel angesetzt wurde, bis zur Tropfnässe besprüht und 24 h nach dem Antrocknen des Spritzbelages mit Sporen des Weizenmehltaus (Erysiphe graminis f.sp.tritici) bestäubt. Die Versuchspflanzen wurden anschließend im Gewächshaus bei Temperaturen zwischen 20 und 22 °C und 75 bis 80 % relativer Luftfeuchtigkeit aufgestellt. Nach 7 Tagen wurde das Ausmaß der Mehltauentwicklung visuell in % der gesamten Blattfläche ermittelt.

[2] = tested on: Weizenmehltau (Erysiphe graminis forma specialis tritici); assay: Efficacy against wheat powdery mildew, protective spray on wheat seedlings cv. "Kanzler" (Anwendungsbeispiel 1); format: in vivo; conditions: inoculated 24 h after spraying, rating after 7 days, untreated 80 %
Text: Anwendungsbeispiel 1 - Wirksamkeit gegen Weizenmehltau
Blätter von in Töpfen gewachsenen Weizenkeimlingen der Sorte ? Kanzler" wurden mit wäßriger Wirkstoffaufbereitung, die aus einer Stammlösung bestehend aus 10 % Wirkstoff, 63 % Cyclohexanon und 27 % Emulgiermittel angesetzt wurde, bis zur Tropfnässe besprüht und 24 Stunden nach dem Antrocknen des Spritzbelages mit Sporen des Weizenmehltaus (Erysiphe graminis forma specialis tritici) bestäubt. Die Versuchspflanzen wurden anschließend im Gewächshaus bei Temperaturen zwischen 20 und 24°C und 60 bis 90 % relativer Luftfeuchtigkeit aufgestellt. Nach 7 Tagen wurde das Ausmaß der Mehltauentwicklung visuell in % Befall der gesamten Blattfläche ermittelt.

Compound: O=C(Cc1ccccc1)NC(=NOCC1CC1)c1c(Cl)ccc(F)c1Cl [II.1, N-Phenylacetyl-2,6-dichlor-5-fluorbenzamid-[O-cyclopropylmethyl]oxim]
- Ausmaß der Mehltauentwicklung (Befall) [1]: keinen Befall
- %-Befall der Blätter nach Applikation von ... ppm-haltiger wäßriger Wirkstoffaufbereitung ([2]; 16 ppm): 0%
- %-Befall der Blätter nach Applikation von ... ppm-haltiger wäßriger Wirkstoffaufbereitung ([2]; 63 ppm): 0%
